Results on 44 compounds are retold here after US10493070B2 (priority 2016, dated 2019).

Molecules are shown by their SMILES.

One experiment deals with recombinant NL4-3 virus (NLRluc, Renilla luciferase in nef, Gag P373S). As to the kind of experiment: HIV cell culture assay (Renilla luciferase reporter virus in MT-2 cells). Format: cell-based. Conditions: Renilla, NL43, read-out: 10% FBS EC50, 10% FBS, class symbols A/B/C. How it is done:
MT-2 cells and 293T cells were obtained from the NIH AIDS Research and Reference Reagent Program. MT-2 cells were propagated in RPMI 1640 media supplemented with 10% heat inactivated fetal bovine serum, […]. The 293T cells were propagated in DMEM media supplemented with 10% heat inactivated fetal bovine serum (FBS), 100 units/ml penicillin G and 100 μg/ml streptomycin. The proviral DNA clone of NL4-3 was obtained from the NIH AIDS Research and Reference Reagent Program. A recombinant NL4-3 virus, in which a section of the nef gene from NL4-3 was replaced with the Renilla luciferase gene, was used as a reference virus. In addition, residue Gag P373 was converted to P373S. Briefly, the recombinant virus was prepared by transfection of the altered proviral clone of NL4-3. Transfections were performed in 293T cells using LipofectAMINE PLUS from Invitrogen (Carlsbad, Calif.), according to manufacturer's instruction. The virus was titered in MT-2 cells using luciferase enzyme activity as a marker. Luciferase was quantitated using the Dual Luciferase kit from Promega (Madison, Wis.), with modifications to the manufacturer's protocol. The diluted Passive Lysis solution was pre-mixed with the re-suspended Luciferase Assay Reagent and the re-suspended Stop & Glo Substrate (2:1:1 ratio). Fifty (50) μL of the mixture was added to each aspirated well on assay plates and luciferase activity was measured immediately on a Wallac TriLux (Perkin-Elmer). Antiviral activities of inhibitors toward the recombinant virus were quantified by measuring luciferase activity in cells infected for 4-5 days with NLRluc recombinants in the presence serial dilutions of the inhibitor. Table 16 is the key for the data in Table 17.
A general note: A reporter such as luciferase makes a cellular process visible.
`CC1(C)C(c2ccc(C(=O)O)cc2)=CC[C@]2(C)CN(C(=O)c3ccc(C(=O)O)cc3)CC=C12` [Example 13]: the EC50 was over 3000 nM.
Consider `CC1(C)C(c2ccc(C(=O)O)cc2)=CC[C@]2(C)CN(C(=O)c3ccccc3-c3nc4c([N+](=O)[O-])cccc4[nH]3)CC=C12` [Example A272], for which the EC50 was under 500 nM.
With `CC1(C)C(c2ccc(C(=O)O)cc2)=CC[C@]2(C)CN(c3cc(F)cc(-c4nn[nH]n4)c3)CC=C12` [Example B7], the EC50 is over 3000 nM.
Still for that read-out and setting: to `Cc1cc(Cl)cc2[nH]c(-c3ccccc3C(=O)N3CC=C4C(C)(C)C(c5ccc(C(=O)O)cc5)=CC[C@]4(C)C3)nc12` [Example A271] belongs under 500 nM; to `CC1(C)C(c2ccc(C(=O)O)cc2)=CC[C@]2(C)CN(C(=O)c3ccc4[nH]cnc4c3)CC=C12` [Example 40], over 3000 nM; to `CC1(C)C(c2ccc(C(=O)O)cc2)=CC[C@]2(C)CN(C(=O)c3cccc(F)c3F)CC=C12` [Example 4], over 3000 nM.
Regarding `CC1(C)C(c2ccc(C(=O)O)cc2)=CC[C@]2(C)CN(C(=O)c3cccc(C(=O)NCCCN4CCS(=O)(=O)CC4)n3)CC=C12` [Example 70], the EC50 is over 3000 nM.
Still for that read-out and setting: to `CC1(C)C(c2ccc(C(=O)O)cc2)=CC[C@]2(C)CN(C(=O)c3ccc(F)cc3F)CC=C12` [Example 5] belongs over 3000 nM; to `Cn1c(-c2ccccc2C(=O)N2CC=C3C(C)(C)C(c4ccc(C(=O)O)cc4)=CC[C@]3(C)C2)nc2ccccc21` [Example A274], over 3000 nM; to `CC(C)C[C@H](NC(=O)OC(C)(C)C)C(=O)N1CCC(C(=O)N2CC=C3C(C)(C)C(c4ccc(C(=O)O)cc4)=CC[C@]3(C)C2)(c2ccccc2)CC1` [Example 93], under 500 nM.
On the same count and under the same terms, to `COCCn1c(-c2ccccc2C(=O)N2CC=C3C(C)(C)C(c4ccc(C(=O)O)cc4)=CC[C@]3(C)C2)nc2cc(C(=O)O)ccc21` [Example A296] belongs over 3000 nM.
For the compound `CC1(C)C(c2ccc(C(=O)O)cc2)=CC[C@]2(C)CN(C(=O)CCN3CCS(=O)(=O)CC3)CC=C12` [Example 36], the EC50 was over 3000 nM.
As to `CC1(C)C(c2ccc(C(=O)O)cc2)=CC[C@]2(C)CN(C(=O)c3ccccc3C(=O)N3CC=C4C(C)(C)C(c5ccc(C(=O)O)cc5)=CC[C@]4(C)C3)CC=C12` [Example 60], the EC50 was in the range of 500 to 3000 nM.
Same read-out and setting: to `CC1(C)C(c2ccc(C(=O)O)cc2)=CC[C@]2(C)CN(CCN3CCS(=O)(=O)CC3)CC=C12` [Example 79] belongs over 3000 nM; to `CC1(C)C(c2ccc(C(=O)O)cc2)=CC[C@]2(C)CN(c3cc(N)cc(-c4nnn(CCN5CCS(=O)(=O)CC5)n4)c3)CC=C12` [Example B3, (S)-4-(2-(3-amino-5-(2-(2-(1,1-dioxidothiomorpholino)ethyl)-2H-tetrazol-5-yl)phenyl)-5,5,8a-trimethyl-1,2,3,5,8,8a-hexahydroisoquinolin-6-yl)benzoic acid], over 3000 nM.
For `CC1(C)C(c2ccc(C(=O)O)cc2)=CC[C@]2(C)CN(C(=O)c3ccccc3-c3nc4cc(F)c(F)cc4[nH]3)CC=C12` [Example A267], the EC50 is 500 to 3000 nM.
Still for that read-out and setting: to `CC1(C)C(c2ccc(C(=O)O)cc2)=CC[C@]2(C)CN(C(=O)c3cc(F)ccc3F)CC=C12` [Example 6] belongs over 3000 nM.
Consider `CC1(C)C(c2ccc(C(=O)O)cc2)=CC[C@]2(C)CN(C(=O)c3cccc(C(=O)O)c3)CC=C12` [Example 12], for which the EC50 was over 3000 nM.
On the same count and under the same terms, to `CC1(C)C(c2ccc(C(=O)O)cc2)=CC[C@]2(C)CN(C(=O)c3ccc(C(=O)N4CCS(=O)(=O)CC4)cc3)CC=C12` [Example 69] belongs over 3000 nM; to `CN1CCC2C(C)(C)[C@@H](c3ccc(C(=O)O)cc3)CC[C@]2(C)C1` (single isomer, unassigned) [Example 91], over 3000 nM; to `CC1(C)C(c2ccc(C(=O)O)cc2)=CC[C@]2(C)CN(C(=O)c3ccccc3-c3nc4c(F)cccc4[nH]3)CC=C12` [Example A266], under 500 nM.
On the same count and under the same terms, to `CC1(C)C(c2ccc(C(=O)O)cc2)=CC[C@]2(C)CN(C(=O)c3cncc(C(=O)N4CC=C5C(C)(C)C(c6ccc(C(=O)O)cc6)=CC[C@]5(C)C4)c3)CC=C12` [Example 63] belongs over 3000 nM.
Still for that read-out and setting: to `CCn1c(-c2ccccc2C(=O)N2CC=C3C(C)(C)C(c4ccc(C(=O)O)cc4)=CC[C@]3(C)C2)nc2cc(S(C)(=O)=O)ccc21` [Example A286] belongs over 3000 nM; to `CC1(C)C(c2ccc(C(=O)O)cc2)=CC[C@]2(C)CN(C(=O)c3cccc(N4CCOCC4)c3)CC=C12` [Example 27], over 3000 nM.
For the compound `CC1(C)C(c2ccc(C(=O)O)cc2)=CC[C@]2(C)CN(C(=O)c3ccc(N4CCOCC4)cc3)CC=C12` [Example 28], the EC50 is over 3000 nM.
On the same count and under the same terms, to `CC1(C)C(c2ccc(C(=O)O)cc2)=CC[C@]2(C)CN(C(=O)c3ccccc3-c3nc4cc(C(=O)O)ccc4n3Cc3cccnc3)CC=C12` [Example A293] belongs over 3000 nM; to `CC1(C)C(c2ccc(C(=O)O)cc2)=CC[C@]2(C)CN(C(=O)c3ccccc3C(N)=O)CC=C12` [Example 20], over 3000 nM.

Staying with this experiment, now noted: Renilla, NL43, read-out: 10% FBS EC50, 10% FBS, numeric values.
Regarding `CN1CCN(c2ccc(C(=O)N3CC=C4C(C)(C)C(c5ccc(C(=O)O)cc5)=CC[C@]4(C)C3)cc2)CC1` [Example 30], the EC50 turned out to be 2270 nM.
The same measure, in the same setting: to `CC1(C)C(c2ccc(C(=O)O)cc2)=CC[C@]2(C)CN(C(=O)c3ccccc3-c3nc4ccccc4n3C3CCN(Cc4ccccc4)CC3)CC=C12` [Example A280] belongs 550 nM; to `COc1ccccc1C(=O)N1CC=C2C(C)(C)C(c3ccc(C(=O)O)cc3)=CC[C@]2(C)C1` [Example 17], 1690 nM.
Still for that read-out and setting: to `CC1(C)C(c2ccc(C(=O)O)cc2)=CC[C@]2(C)CN(C(=O)c3ccccc3N3CCNCC3)CC=C12` [Example 51, (S)-4-(5,5,8a-trimethyl-2-(2-(piperazin-1-yl)benzoyl)-1,2,3,5,8,8a-hexahydroisoquinolin-6-yl)benzoic acid] belongs 870 nM.
The same measure, in the same setting: to `CC1(C)C(c2ccc(C(=O)O)cc2)=CC[C@]2(C)CN(C(=O)C3(c4ccccc4)CCN(S(=O)(=O)CCCCl)CC3)CC=C12` [Example A197] belongs 147 nM; to `COc1cccc2oc(-c3ccccc3C(=O)N3CC=C4C(C)(C)C(c5ccc(C(=O)O)cc5)=CC[C@]4(C)C3)nc12` [Example A311], 218 nM.
On to `CC(C)C[C@@H](NC(=O)OC(C)(C)C)C(=O)N1CCC(C(=O)N2CC=C3C(C)(C)C(c4ccc(C(=O)O)cc4)=CC[C@]3(C)C2)(c2ccccc2)CC1` [Example 92, 4-((S)-2-(1-((tert-butoxycarbonyl)-D-leucyl)-4-phenylpiperidine-4-carbonyl)-5,5,8a-trimethyl-1,2,3,5,8,8a-hexahydroisoquinolin-6-yl)benzoic acid], for which the EC50 was 8 nM.
Turning to `CC1(C)C(c2ccc(C(=O)O)cc2)=CC[C@]2(C)CN(C(=O)c3ccccc3-c3nc4c(Cl)cc(Cl)cc4[nH]3)CC=C12` [Example A268], the EC50 came to 14 nM.
In the case of `CC(C)C[C@@H](N)C(=O)N1CCC(C(=O)N2CC=C3C(C)(C)C(c4ccc(C(=O)O)cc4)=CC[C@]3(C)C2)(c2ccccc2)CC1` [Example 57], the EC50 was found to be 148 nM.
The same measure, in the same setting: to `CC(C)(C)OC(=O)N[C@H](C(=O)N1CCC(C(=O)N2CC=C3C(C)(C)C(c4ccc(C(=O)O)cc4)=CC[C@]3(C)C2)(c2ccccc2)CC1)C(C)(C)C` [Example A219] belongs 150 nM; to `CC1(C)C(c2ccc(C(=O)O)cc2)=CC[C@]2(C)CN(C3CCC(CN)(c4ccccc4)CC3)CC=C12` (stereo partly drawn) [Example C3, (S)-4-(2-(4-(aminomethyl)-4-phenylcyclohexyl)-5,5,8a-trimethyl-1,2,3,5,8,8a-hexahydroisoquinolin-6-yl)benzoic acid], 150 nM; to `Cc1cc2nc(-c3ccccc3C(=O)N3CC=C4C(C)(C)C(c5ccc(C(=O)O)cc5)=CC[C@]4(C)C3)[nH]c2cc1C` [Example 97, (S)-4-(2-(2-(5,6-dimethyl-1H-benzo[d]imidazol-2-yl)benzoyl)-5,5,8a-trimethyl-1,2,3,5,8,8a-hexahydroisoquinolin-6-yl)benzoic acid], 51 nM.
Still for that read-out and setting: to `CC1(C)C(c2ccc(C(=O)O)cc2)=CC[C@]2(C)CN(C(=O)C3(c4ccccc4)CCN(C(=O)CCN4CCS(=O)(=O)CC4)CC3)CC=C12` [Example 95] belongs 2700 nM.
In the case of `CC(C)C[C@H](NC(=O)OC(C)(C)C)C(=O)N1CCC(C(=O)N2CC[C@H]3C(C)(C)[C@@H](c4ccc(C(=O)O)cc4)CC[C@]3(C)C2)(c2ccccc2)CC1` [Example 87], the EC50 amounted to 101 nM.
`CC1(C)C(c2ccc(C(=O)O)cc2)=CC[C@]2(C)CN(C(=O)C3(Cc4ccccc4)CCNCC3)CC=C12` [Example 55]: the EC50 came out at 3040 nM.
As to `CC1(C)C(c2ccc(C(=O)O)cc2)=CC[C@]2(C)CN(C(=O)c3ccccc3-c3nc4cc([N+](=O)[O-])ccc4[nH]3)CC=C12` [Example A273], the EC50 is 63 nM.
On the same count and under the same terms, to `CC(C)(C)OC(=O)N1CCC(C(=O)N2CC=C3C(C)(C)C(c4ccc(C(=O)O)cc4)=CC[C@]3(C)C2)(C2CCCCC2)CC1` [Example 50] belongs 290 nM.
